Experimental data from publication PMC10996005, “Identification and Development of Cyclic Peptide Inhibitors of Hypoxia Inducible Factors 1 and 2 That Disrupt Hypoxia-Response Signaling in Cancer Cells” (Journal of the American Chemical Society, 2024).
Like-named read-outs stand apart in the source and are kept apart here. Where a SMILES comes first, the peptide text is derived from it. [ ]: non-standard residue; d: D form. Phe(4-CF3) = N[C@@H](Cc1ccc(C(F)(F)F)cc1)C(=O)O; Phe(4-Br) = N[C@@H](Cc1ccc(Br)cc1)C(=O)O; Phe(4-CN) = N#Cc1ccc(C[C@H](N)C(=O)O)cc1; Phe(4-Cl) = N[C@@H](Cc1ccc(Cl)cc1)C(=O)O; 1Nal = N[C@@H](Cc1cccc2ccccc12)C(=O)O; 4Pal = N[C@@H](Cc1ccncc1)C(=O)O; Pen = CC(C)(S)[C@H](N)C(=O)O; hLeu = CC(C)CC[C@H](N)C(=O)O; hCys = N[C@@H](CCS)C(=O)O; Nva = CCC[C@H](N)C(=O)O

Columns and labels:
HIF-1α PAS-B domain = biological target: T1, HIF-1α PAS-B domain (Homo sapiens, UniProt Q16665); assay: MST binding to the PAS-B domain of HIF-1α; settings: for Kd: mean ± SEM, n = 2 (n = 1 for most C1 analogues, n = 3 in Figure S2); for loss of affinity (KD) compared to cyclo-CRLIIF: MST KD ratio
T1 construct: made in house
Experimental: (§1) All reagents were purchased from Fisher Scientific or Sigma Aldrich UK unless specified otherwise.
(§2) Restriction enzymes and microbiology reagents were purchased from New England Biolabs Inc., Fisher Scientific (UK) or Promega (UK) and were used as directed by the manufacturer. Primers and oligonucleotides were synthesised by Integrated DNA Technologies (UK). DNA sequencing was carried out by Eurofins MWG Operon (Germany).
(§3) Construction of the RTHS and SICLOPPS library, screening, purification of recombinant HIF proteins, and the PLA was conducted as previously described in Miranda et al., J. Am. Chem. Soc., 2013, 135(28); […]
(§4) Protein labelling with MST dye
(§5) Protein was buffer exchanged from storage buffer into labelling buffer (0.1 M NaHCO3, pH 8.5) using a PD spintrap G-25 column (GE healthcare). The protein concentration was then adjusted to 20 µM.
(§6) The commercially sourced MST dye (NanoTemper) was prepared as a 470 µM solution in DMSO, which was then further diluted to 60 µM using labelling buffer. To the protein solution was added an equal volume of dye solution, and the labelling reaction was left for 1 hour in the dark at room temperature.
(§7) The labelled protein was separated from unreacted dye by elution through a PD minitrap G-25 column (GE healthcare). Labelled protein was then aliquoted and stored at -80 °C. Extent of labelling was measured by the absorbance obtained using the UV-vis mode on a NanoDrop ND-1000 Spectrophotometer (NanoDrop Technologies, USA).
(§8) Labelled protein was thawed on ice and diluted to 50 nM in assay buffer containing 50 mM Tris pH 8.0, 150 mM NaCl, 5% (v/v) glycerol, 1 mM TCEP and 0.05% TWEEN-20. The protein solution was then centrifuged at 12000 rpm for 15 minutes at 4 °C and left on ice. Compounds were prepared and serially diluted in DMSO at 10x assay concentration, before diluting to 2x assay concentration in assay buffer.
(§9) The 2x compound solutions were then mixed 1:1 (v/v) with 50 nM labelled protein solution and left to incubate for 1 hour at room temperature. Solutions were then loaded into Monolith NT.115 Premium Capillaries (NanoTemper) and placed in the sample tray. MST experiments were carried out

HIF-2α PAS-B domain = biological target: T2, HIF-2α PAS-B domain (Homo sapiens, UniProt Q99814); assay: MST binding to the PAS-B domain of HIF-2α; settings: MST
T2 construct: made in house
Experimental: as §1, §2, §3, §4, §5, §6, §7, §8, §9

[1] = MST, read-out: KD for HIF-1α PAS-B

T1 sequence (Q16665 238-349 limits assumed): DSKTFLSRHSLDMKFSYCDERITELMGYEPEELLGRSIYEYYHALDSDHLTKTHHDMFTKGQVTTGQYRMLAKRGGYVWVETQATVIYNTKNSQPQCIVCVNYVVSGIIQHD
T2 sequence (Q99814 240-350 limits assumed): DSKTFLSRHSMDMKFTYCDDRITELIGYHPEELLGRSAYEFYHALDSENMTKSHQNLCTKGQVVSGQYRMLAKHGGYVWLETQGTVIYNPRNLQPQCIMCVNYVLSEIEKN

Row | SMILES | Kd (HIF-1α PAS-B domain; [1]) [µM] | further results
1 | CC[C@H](C)[C@@H]1NC(=O)[C@H](CC(C)C)NC(=O)[C@H](CC(C)C)NC(=O)[C@H](CCCNC(=N)N)NC(=O)[C@H](CS)NC(=O)[C@H](Cc2ccccc2)NC1=O [cyclo-CRLLIF] (cyclo(CRLLIF); ring closure inferred) |  | Hill slope of binding curve to HIF-1α (HIF-1α PAS-B domain; MST): 1.22; Hill slope of binding curve to HIF-2α (HIF-2α PAS-B domain): 1.45
2 | CC[C@H](C)[C@@H]1NC(=O)[C@H](CC(C)C)NC(=O)[C@H](CCCNC(=N)N)NC(=O)[C@H](C(C)(C)S)NC(=O)[C@H](Cc2ccccc2)NC(=O)[C@H]([C@@H](C)CC)NC1=O [Pen, cyclo-PenRLIIF] (cyclo(F[Pen]RLII)) | 5.7 ± 0.9 | 
3 | CC[C@H](C)[C@@H]1NC(=O)[C@H](CC(C)C)NC(=O)[C@H](CCCNC(=N)N)NC(=O)[C@H](CS)NC(=O)[C@H](Cc2ccncc2)NC(=O)[C@H]([C@@H](C)CC)NC1=O [4-Pal, cyclo-CRLII(4-Pal)] (cyclo([4Pal]CRLII)) |  | loss of affinity (KD) compared to cyclo-CRLIIF (HIF-1α PAS-B domain): ~11 fold
4 | CC[C@H](C)[C@@H]1NC(=O)[C@H](C(C)C)NC(=O)[C@H](CCCNC(=N)N)NC(=O)[C@H](CS)NC(=O)[C@H](Cc2ccccc2)NC(=O)[C@H]([C@@H](C)CC)NC1=O [cyclo-CRVIIF] (cyclo(CRVIIF); ring closure inferred) |  | Kd (HIF-1α PAS-B domain; KD for HIF-1α PAS-B, MST): 65.5 ± 11.4 µM; selectivity for HIF-1α over HIF-2α (HIF-1α PAS-B domain; ratio of MST KD values): 2 fold
5 | CC[C@H](C)[C@@H]1NC(=O)[C@H](CC(C)C)NC(=O)[C@H](CCCNC(=N)N)NC(=O)[C@H](CS)NC(=O)[C@H](C)NC(=O)[C@H]([C@@H](C)CC)NC1=O [cyclo-CRLIIA] | 80.2 ± 27.3 | Kd (HIF-2α PAS-B domain; mean (n = 2) ± SEM): > 100 µM
6 | CCC[C@@H]1NC(=O)[C@H]([C@@H](C)CC)NC(=O)[C@H](CC(C)C)NC(=O)[C@H](CCCNC(=N)N)NC(=O)[C@H](CS)NC(=O)[C@H](Cc2ccccc2)NC1=O [Nva, cyclo-CRLINvaF] (cyclo(CRLI[Nva]F)) | 22.1 ± 2.6 | 
7 | CC[C@H](C)[C@@H]1NC(=O)[C@H](CC(C)C)NC(=O)[C@H](CCCNC(=N)N)NC(=O)[C@H](CS)NC(=O)[C@H](Cc2cccc3ccccc23)NC(=O)[C@H]([C@@H](C)CC)NC1=O [1-Nal, cyclo-CRLII(1-Nal)] (cyclo([1Nal]CRLII)) | 1.7 ± 0.5 | 
8 | CC[C@H](C)[C@@H]1NC(=O)[C@H](CC(C)C)NC(=O)[C@H](CCCNC(=N)N)NC(=O)[C@H]([C@@H](C)O)NC(=O)[C@H](Cc2ccccc2)NC(=O)[C@H]([C@@H](C)CC)NC1=O [T, cyclo-TRLIIF] (cyclo(FTRLII)) | > 100 | 
9 | CC[C@H](C)[C@H](NC(C)=O)C(=O)N[C@@H](Cc1ccccc1)C(=O)N[C@@H](CS)C(N)=O [Ac-IFC-NH2] (Ac-Ile-Phe-Cys-NH2) |  | loss of affinity (KD) compared to cyclo-CRLIIF (HIF-1α PAS-B domain): ~10 fold
10 | CC[C@H](C)[C@@H]1NC(=O)[C@H](CC(C)C)NC(=O)[C@H](CCCNC(=N)N)NC(=O)[C@H](CS)NC(=O)[C@H](Cc2ccccc2)NC(=O)[C@H](CCC(C)C)NC1=O [hL, cyclo-CRLIhLF] (cyclo(CRLI[hLeu]F)) | 4.4 ± 1.3 | 
11 | CC[C@H](C)[C@@H]1NC(=O)[C@H](CC(C)C)NC(=O)[C@H](CCCNC(=N)N)NC(=O)[C@H](CCS)NC(=O)[C@H](Cc2ccccc2)NC(=O)[C@H]([C@@H](C)CC)NC1=O [hC, cyclo-hCRLIIF] (cyclo(F[hCys]RLII)) | > 50 | 

Continued, in another order:

Row | Kd (HIF-1α PAS-B domain; [1]) [µM] | SMILES | further results
12 | 1 ± 0.2 | CC[C@H](C)[C@@H]1NC(=O)[C@H](CC(C)C)NC(=O)[C@H](CCCNC(=N)N)NC(=O)[C@H](CS)NC(=O)[C@H](Cc2ccc(Br)cc2)NC(=O)[C@H]([C@@H](C)CC)NC1=O [Br, cyclo-CRLII(4-Br)F] (cyclo(CRLII[Phe(4-Br)])) | 
13 | 1.1 ± 0.5 | CC[C@H](C)[C@@H]1NC(=O)[C@H](CC(C)C)NC(=O)[C@H](CCCNC(=N)N)NC(=O)[C@H](CS)NC(=O)[C@H](Cc2ccc(C(F)(F)F)cc2)NC(=O)[C@H]([C@@H](C)CC)NC1=O [CF3, cyclo-CRLII(4-CF3)F] (cyclo(CRLII[Phe(4-CF3)])) | 
14 | 4.4 ± 0.1 | CC[C@H](C)[C@@H]1NC(=O)[C@H](CC(C)C)NC(=O)[C@H](CCCNC(=N)N)NC(=O)[C@H](CS)NC(=O)[C@H](Cc2ccc(C#N)cc2)NC(=O)[C@H]([C@@H](C)CC)NC1=O [CN, cyclo-CRLII(4-CN)F] (cyclo(CRLII[Phe(4-CN)])) | 
15 | 1.2 ± 0.3 | CC[C@H](C)[C@@H]1NC(=O)[C@H](CC(C)C)NC(=O)[C@H](CCCNC(=N)N)NC(=O)[C@H](CS)NC(=O)[C@H](Cc2ccc(Cl)cc2)NC(=O)[C@H]([C@@H](C)CC)NC1=O [Cl, cyclo-CRLII(4-Cl)F] (cyclo(CRLII[Phe(4-Cl)])) | 
